Our source for the melting point values is patent US7342012B2, “Inhibitors of αLβ2 mediated cell adhesion” (Mitsubishi Tanabe Pharma Corporation, priority 1999, dated 2008).

For orientation: melting point means the temperature of the solid-liquid transition.

Molecule `[N-]=[N+]=N[C@@H]1CN2C(=O)N(c3cc(Cl)nc(Cl)c3)C(=O)[C@@]2(Cc2ccc(OC(F)(F)F)cc2)C1` [Example 62, (5R,7S)-5-[4-(Trifluoromethoxy)benzyl]-3-(2,6-dichloro-4-pyridyl)-7-azido-1,3-diazabicyclo[3.3.0]octane-2,4-dione] showed a melting point of 139.9 °C.

Turning to `NC(=O)C[C@H](NC(=O)c1c(Cl)cc(N2C(=O)N3CCCC3(Cc3ccc(Br)cc3)C2=O)cc1Cl)C(=O)O` (stereo partly drawn) [Example 229, 5-(4-Bromobenzyl)-3-(3,5-dichloro-4-L-asparaginocarbonylphenyl)-1,3-diazabicyclo[3.3.0]octane-2,4-dione], the melting point was 172 °C.

As for `N#Cc1ccc(CC23CCCN2C(=O)N(Cc2cc(Cl)cc(Cl)c2)C3=O)cc1` (stereo not drawn) [Example 106, 5-(4-Cyanobenzyl)-3-(3,5-dichlorobenzyl)-1,3-diazabicyclo[3.3.0]octane-2,4-dione], the melting point amounted to 124 °C.

As for `O=C1N(c2cc(Cl)c(OCc3ccccc3)c(Cl)c2)C(=O)C2(Cc3ccc(Br)cc3)CCCN12` (stereo not drawn) [Example 138, 5-(4-Bromobenzyl)-3-[3,5-dichloro-4-(benzyloxy)phenyl]-1,3-diazabicyclo[3.3.0]octane-2,4-dione], the melting point turned out to be 62 °C.

For the molecule `N#Cc1ccc(CC23CN(C(=O)CCC(=O)O)CCN2C(=O)N(c2cc(Cl)nc(Cl)c2)C3=O)cc1` (stereo not drawn) [Example 163, 6-(4-Cyanobenzyl)-4-(3-carboxypropionyl)-8-(2,6-dichloro-4-pyridyl)-1,4,8-triazabicyclo[4.3.0]nonane-7,9-dione], the melting point was 100.9 °C (dec.).

Regarding `O=C1N(c2cccc(C(F)(F)F)c2)C(=O)C2(Cc3ccc(Br)cc3)CCCN12` (stereo not drawn) [Example 233], the melting point came to 82.6 °C.

`CC(=O)c1cccc(N2C(=O)N3CCCC3(Cc3ccc(Br)cc3)C2=O)c1` (stereo not drawn) [Example 237]: the melting point came to 120.4 °C.

Consider `COC(=O)N1CCCC2(Cc3ccc(Br)cc3)C(=O)N(c3cc(Cl)nc(Cl)c3)C(=O)N12` (stereo not drawn) [Example 102, 6-(4-Bromobenzyl)-8-(2,6-dichloro-4-pyridyl)-2-methoxycarbonyl-1,2,8-triazabicyclo[4.3.0]nonane-7,9-dione], for which the melting point was 81 °C.

Turning to `N#Cc1ccc(CC23CCCN2C(=O)N(c2cc(Cl)c(N)c(Cl)c2)C3=O)cc1` (stereo not drawn) [Example 132, 5-(4-Cyanobenzyl)-3-(3,5-dichloro-4-aminophenyl)-1,3-diazabicyclo[3.3.0]octane-2,4-dione], the melting point is 103 °C.
